The values below come from PMC10320002, “In vitro antiproliferative, anti-inflammatory effects and molecular docking studies of natural compounds isolated from Sarcocephalus pobeguinii (Hua ex Pobég)” (Frontiers in Pharmacology, 2023).

One data set addresses T1, 15-LOX (Glycine max, UniProt P08170).
T1 construct: purchased Merck, Darmstadt, Germany
T1 sequence (P08170 1-839): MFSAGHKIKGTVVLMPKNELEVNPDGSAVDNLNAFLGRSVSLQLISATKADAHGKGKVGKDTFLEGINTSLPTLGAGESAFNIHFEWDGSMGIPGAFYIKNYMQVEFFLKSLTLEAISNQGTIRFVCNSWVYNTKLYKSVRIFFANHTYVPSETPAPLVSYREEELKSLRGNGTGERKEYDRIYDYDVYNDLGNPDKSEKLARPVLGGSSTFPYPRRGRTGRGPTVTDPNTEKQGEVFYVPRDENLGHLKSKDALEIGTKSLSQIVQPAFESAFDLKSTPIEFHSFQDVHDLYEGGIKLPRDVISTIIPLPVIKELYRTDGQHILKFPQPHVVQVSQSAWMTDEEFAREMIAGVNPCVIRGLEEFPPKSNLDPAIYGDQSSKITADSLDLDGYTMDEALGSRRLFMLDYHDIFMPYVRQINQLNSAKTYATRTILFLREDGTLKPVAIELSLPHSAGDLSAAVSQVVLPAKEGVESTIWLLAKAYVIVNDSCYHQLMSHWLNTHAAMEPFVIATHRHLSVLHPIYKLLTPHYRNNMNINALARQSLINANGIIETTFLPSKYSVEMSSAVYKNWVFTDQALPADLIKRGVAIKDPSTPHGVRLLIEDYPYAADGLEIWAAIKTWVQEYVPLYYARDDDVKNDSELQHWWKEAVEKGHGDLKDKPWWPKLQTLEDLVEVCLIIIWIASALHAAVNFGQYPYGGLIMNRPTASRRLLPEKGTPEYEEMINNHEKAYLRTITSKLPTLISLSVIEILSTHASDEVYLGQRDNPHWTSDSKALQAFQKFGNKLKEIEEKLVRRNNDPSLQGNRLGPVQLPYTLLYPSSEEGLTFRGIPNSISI
Kind of data set: Soybean 15-LOX inhibitory assay (FOX). The following applies: linoleic acid 140 μM, pH 7.4, 25°C. In kind it is biochemical. As to the method:
This assay is based on the formation of the Fe^3+/xylenol orange (FOX) complex with maximal absorption at 560 nm ([Pinto et al., 2007]). Forty microliters of 15-LOX (final concentration: 200 UI/mL) from Glycine max (Merck, Darmstadt, Germany) was incubated with 20 µL of tested samples (100, 50, 25, 10, and 5 μg/mL) at 25°C for 5 min, with DMSO at 10% (v/v) being used as negative control. Thereafter, 40 µL of linoleic acid (final concentration, 140 μM) prepared in Tris-HCl buffer (50 mM, pH 7.4) was added, and the plates were further incubated at 25°C for 20 min in the dark. The assay was terminated by adding 100 μL of FOX reagent [sulfuric acid (30 mM), xylenol orange (100 μM), ferrous II) sulfate (100 μM), dissolved in methanol/water (9:1)], followed by the incubation of the plates at 25°C for 30 min in the dark. Finally, the absorbance was measured at 560 nm on a microplate reader (Epoch, BioTek, Winooski, United States of America). The blanks were made in the same way as tested samples except that the substrate was added after the FOX reagent. The 15-LOX inhibitory activity was calculated by using the following formula: 15−LOX inhibitory activity %=100−Abs sample−Abs blank/Abs negative control−Abs blank×100 (1)

In the next data set the test system is MCF-7 cells. The data set can be described thus: MTT antiproliferation assay, MCF-7. In kind it is cell-based, human. The following applies: for IC50: Homo sapiens, MCF7, 48 h, MTT; for SI values MCF7: IC50 of non-cancerous Vero cells divided by IC50 of MCF-7. As to the method:
(§1) Cancerous cell lines (MCF-7: human breast adenocarcinoma cells; HepG2: human hepatocellular carcinoma cells; Caco-2: human epithelial colorectal adenocarcinoma cells; A549: human epithelial lung adenocarcinoma cells), obtained from the American Type Culture Collection (ATCC) (Rockville, MD, United States of America), were cultured in Dulbecco’s Modified Eagle’s Medium (DMEM) high glucose (4.5 g/L) containing L-glutamine (4 mM) and sodium-pyruvate (Hyclone™) supplemented with 10% (v/v) fetal bovine serum (FBS) (Capricorn Scientific GmbH, South America), and incubated at 37°C with 5% CO2 in a humidified environment. African green monkey (Vero) kidney cells (also obtained from ATCC), a non-cancerous cell line, were grown in DMEM high glucose (4.5 g/L) containing L-glutamine (Lonza, Belgium) and supplemented with 5% FBS (Capricorn Scientific GmbH, South America) and 1% gentamicin (Virbac, RSA) in the same environment as cancer cells. The RAW 264.7 murine macrophage cells (obtained from ATCC) were cultured in DMEM high glucose (4.5 g/L) containing L-glutamine (Lonza, Belgium), supplemented with 10% FBS (Capricorn Scientific GmbH, South America) and 1% penicillin/streptomycin/fungizone (PSF) solution, and kept at 37°C in a 5% CO2 humidified environment.
(§2) The cancerous and non-cancerous cells were seeded at a density of 10^4 cells per well in 96-well microtiter plates, and they were incubated overnight at 37°C with 5% CO2 in a 5% CO2 humidified environment in order to allow the attachment of cells at the bottom of the plates. Then, the cells were exposed to increasing concentrations of compounds (100, 50, 25, 10 and 5 μg/mL) dissolved in dimethyl sulfoxide (DMSO) and further diluted in fresh culture medium. In this assay, the final concentration of DMSO in the culture medium was 0.5% used as negative control while doxorubicin hydrochloride (Pfizer, United States of America) was used as a positive control. The culture plates were incubated for 48 h at 37°C in a 5% CO2 humidified environment, after which the culture medium was discarded, and replaced by 200 µL of fresh culture medium with 30 µL of 3-(4,5-dimethylthiazol-2-yl)-2,5-diphenyl-2H-tetrazolium bromide (MTT) (5 mg/mL) dissolved in phosphate buffered saline ([Mosmann, 1983]). After 4 h of incubation, the medium was gently removed, and the formazan crystals were solubilized in 50 µL of DMSO. The absorbance was measured at 570 nm after shaking for 1 min on a microplate reader (Synergy Multi-Mode Reader, BioTek, Winooski, United States of America).
(§3) The cell viability rate was determined at each concentration of the compound as a percentage of cells treated with DMSO at 0.5% used as negative control. […] The selectivity index (Supporting Material) values were calculated for each compound by dividing the IC50 of non-cancerous cells by the IC50 of cancerous cells in the same units ([Mfotie Njoya et al., 2018]; [Mfotie Njoya et al., 2020]).
For orientation: Tetrazolium dyes change colour on reduction, which living cells bring about.

For a further data set, the system named is Vero cells. The data set can be described thus: MTT antiproliferation assay, non-cancerous Vero cells. The conditions noted are these: for IC50: Chlorocebus sabaeus, Vero, 48 h, MTT. In kind it is cell-based, African green monkey. As to the method:
as §1, §2, §3

The subject of a further data set is Caco-2 cells. The data set can be described thus: MTT antiproliferation assay, Caco-2. In kind it is cell-based, human. The conditions noted are these: for IC50: Homo sapiens, Caco-2, 48 h, MTT; for SI values Caco-2: IC50 of non-cancerous Vero cells divided by IC50 of Caco-2. How it is done:
as §1, §2, §3

In a further data set the test system is A549 cells. The data set can be described thus: MTT antiproliferation assay, A549. In kind it is cell-based, human. The following applies: for IC50: Homo sapiens, A549, 48 h, MTT; for SI values A549: IC50 of non-cancerous Vero cells divided by IC50 of A549. How it is done: as §1, §2, §3
The next data set deals with HepG2 cells. The data set can be described thus: MTT antiproliferation assay, HepG2. The data set is classed as cell-based, human. The following applies: for IC50: Homo sapiens, HepG2, 48 h, MTT; for SI values HepG2: IC50 of non-cancerous Vero cells divided by IC50 of HepG2. As to the method: as §1, §2, §3
Where [1] appears, read: read-out: IC50 values 15-LOX (converted).

SMILES strings stand for the structures. Values joined by “and” are separate entries in the source; they are usually repeats but may differ in a detail not shown here. Equal entries are not always repeated. Where two headings read alike, the source gives them in different places.

The term IC50 denotes the concentration needed to halve the response being measured. Take `C[C@]12COCC=C1C[C@H]1c3[nH]c4ccccc4c3CCN1C2=O` [Compound 10, latifoliamide C]: the half-inhibitory concentration (IC50) at 15-LOX (setting [1]) was 253 µM; with MCF-7 cells it was 32.9 µg/mL and 107 µM; in the data set with Vero cells, 65.8 µg/mL and 213 µM; with Caco-2 cells, 63.2 µg/mL and 205 µM; with A549 cells, 143 µM and 44.2 µg/mL; with HepG2 cells, 54.5 µg/mL and 177 µM. Further, the “SI values MCF7” value with MCF-7 cells amounted to 2.01. Moreover, the “SI values Caco-2” value in the data set with Caco-2 cells turned out to be 1.04. The “SI values A549” value in the data set on A549 cells is given as 1.49. Moreover, the “SI values HepG2” value in the data set with HepG2 cells stood at 1.20.
For the compound `C[C@@H]1CC[C@]2(C(=O)O)CC[C@]3(C(=O)O)C(=CCC4[C@@]5(C)CC[C@H](O[C@H]6O[C@H](C)[C@@H](O)[C@H](O)[C@H]6O)C(C)(C)C5CC[C@]43C)C2[C@H]1C` (stereo partly drawn) [Compound 6, quinovic acid 3-O-[α-D-quinovopyranoside]], the IC50 was greater than 158 µM on 15-LOX (setting [1]); 5.96 µg/mL and 9.42 µM with MCF-7 cells; 6.21 µg/mL and 9.81 µM with Vero cells; 7.41 µg/mL and 11.7 µM with Caco-2 cells; 3.08 µM and 1.96 µg/mL with A549 cells; 41.9 µg/mL and 66.3 µM in the data set on HepG2 cells. Moreover, in the data set on MCF-7 cells, the “SI values MCF7” value turned out to be 1.04. Also, in the data set on Vero cells (cancer cells except A549 cells), the “selectivity (SI) towards non-cancerous Vero cells” value is no more than 1. For the same compound, in the data set on Caco-2 cells, the “SI values Caco-2” value came to 0.83. Besides, the “SI values A549” value with A549 cells came to 3.17. For the same compound, the “SI values HepG2” value in the data set with HepG2 cells is 0.14.
As to `C[C@@H]1CC[C@]2(C(=O)O)CC[C@]3(C(=O)O)C(=CCC4[C@@]5(C)CC[C@H](O[C@@H]6O[C@H](C)[C@@H](O)[C@H](O)[C@H]6O)C(C)(C)C5CC[C@]43C)C2[C@H]1C` (stereo partly drawn) [Compound 9, quinovic acid 3-O-[β-D-quinovopyranoside]], the IC50 on 15-LOX (setting [1]) was 118 µM; with MCF-7 cells, 51.5 µg/mL and 81.4 µM; in the data set on Vero cells, 47.1 µg/mL and 74.4 µM; in the data set on Caco-2 cells, 53.7 µg/mL and 84.8 µM; with A549 cells, 69.9 µM and 44.2 µg/mL; in the data set on HepG2 cells, 47.2 µg/mL and 74.6 µM. Also, the “SI values MCF7” value with MCF-7 cells stood at 0.91. Further, the “selectivity (SI) for all cancer cells towards non-cancerous Vero cells” value in the data set with Vero cells (all cancer types (MCF-7, HepG2, Caco-2, A549)) is no more than 1. The “SI values Caco-2” value in the data set on Caco-2 cells was 0.88. The “SI values A549” value with A549 cells is 1.06. In the data set on HepG2 cells, the “SI values HepG2” value was 0.99.
With `CC1(C)CC[C@]2(C(=O)O)CC[C@]3(C)C(=CC[C@@H]4[C@@]5(C)CC[C@H](O)[C@@](C)(CO)[C@@H]5CC[C@]43C)[C@@H]2C1` [Compound 2, hederagenin], the IC50 on 15-LOX (IC50 values 15-LOX) was 28.4 µM and 28.2 µM; in the data set with MCF-7 cells it was 8.92 µg/mL and 18.9 µM; with Vero cells, 45.5 µg/mL and 96.3 µM; in the data set on Caco-2 cells, 36.7 µg/mL and 77.6 µM; in the data set on A549 cells, 40.1 µM and 19 µg/mL; in the data set with HepG2 cells, 24.9 µg/mL and 52.6 µM. Also, the “SI values MCF7” value with MCF-7 cells turned out to be 5.11. Besides, in the data set on Caco-2 cells, the “SI values Caco-2” value was determined as 1.24. Moreover, the “SI values A549” value in the data set on A549 cells is 2.40. Moreover, the “SI values HepG2” value in the data set on HepG2 cells was determined as 1.83.
